What was measured:
H460 NSCLC cells = test: Cell cycle profiles by FACS, MZ and vinorelbine; format: cell-based, human; conditions: sub-therapeutic low dose
Procedure: FIG. 10. MZ Enhances activity of anti-mictotic drugs in H460 NSCLC cells. H460 cells were treated with low dose of MZ or Vinorelbine. Cell cycle profiles indicating G1/S G2-Mphases were analyzed by FACS.
The doses of MZ and vinorelbine were chosen to be “sub-therapeutic”. […] Thus, in H460 NSCLC cells mebendazole enhances the activity of anti-mitotic drugs.

[1] = system: A549 metastatic lung colonies; test: Lung metastases in vivo after tail vein injection; design: species or system female nude mice; conditions: paclitaxel alone, other experiments
Procedure: To establish lung metastases, female nude mice were injected intravenously via tail vein with 10^6 A549 tumor cells suspended in […] of sterile PBS. Six days later, mice were divided into two groups of 5 mice each and treated. Group 1 received no treatment and group 2 received the experimental MZ drug orally at 1 mg of drug (100 μl) twice a week for 3 weeks. After 3 weeks, animals were euthanized by CO2 inhalation. Lungs from each of the mice from the two groups were injected intra-tracheally with India ink and fixed in Feketes solution. The therapeutic effect of MZ treatment was determined by counting the number of metastatic tumors in each lung under a dissecting microscope without knowledge of the treatment groups. The experiments were performed three times and data analyzed and interpreted as statistically significant if the p value was <0.05 by the Mann-Whitney rank-sum test.
Next, the inventors asked whether treatment with MZ would inhibit the growth of human metastatic lung cancer cells in vivo. About 300 metastatic colonies appeared on untreated mice 21 days after A549 cell injection into the tail vein (FIG. 6). This technique was reproducible as the totals blindly counted by two investigators differed by less than 10%. This experiment was performed three times with similar results. The oral administration of […] MZ reduced mean colony count to 80% of the mean value for controls (P<0.0001).

Q: For `CCC1=C[C@@H]2CN(C1)Cc1c([nH]c3ccccc13)[C@@](C(=O)OC)(c1cc3c(cc1OC)N(C)[C@H]1[C@@](O)(C(=O)OC)[C@H](OC(C)=O)[C@]4(CC)C=CCN5CC[C@]31[C@@H]54)C2` [Vinorelbine], which apoptosis under monotherapy (H460 NSCLC cells) is on record?
A: No apoptosis

Q: For `CC(=O)O[C@H]1C(=O)[C@@]2(C)[C@H]([C@H](OC(=O)c3ccccc3)[C@]3(O)C[C@H](OC(=O)[C@H](O)[C@@H](NC(=O)c4ccccc4)c4ccccc4)C(C)=C1C3(C)C)[C@]1(OC(C)=O)CO[C@@H]1C[C@@H]2O` [paclitaxel], which colony formation [1] is on record?
A: no significant reduction
